Test results from article PMC9081605, “A High-Throughput Toxicity Screen of 42 Per- and Polyfluoroalkyl Substances (PFAS) and Functional Assessment of Migration and Gene Expression in Human Placental Trophoblast Cells” (Frontiers in Toxicology, 2022).

Key:
Type in all cases: cell-based, human
[1] = system: JEG-3 cells; assay: CellTiter-Glo luminescent cell viability assay (HTTS); details: for Viability ↑, lowest concentration at which the mean response value exceeded the mean control value ± 2*SD (rough binning): increase; for cell viability relative to vehicle control (rough binning): after 24 h, in at least one concentration
Source text: (§1) JEG-3 human choriocarcinoma trophoblastic cells (American Type Culture Collection, VA, United States) were maintained in sterile-filtered Minimum Essential Media (MEM) supplemented with L-glutamine and phenol red (Thermo Fisher Scientific, MA, United States), 10% (v/v) heat-inactivated BenchMark Fetal Bovine Serum (Gemini Bio, CA, United States), 1% (v/v) sodium pyruvate (Thermo Fisher Scientific, MA, United States), and 1% (v/v) penicillin streptomycin (Sigma Aldrich, MO, United States). Cells were maintained in an incubator at 37°C with 5% CO2. JEG-3 cells were cultured in 10 cm tissue culture plates and cell passage numbers were recorded.
(§2) A total of 42 perfluoroalkyl substances (PFAS) were evaluated (Supplementary Table S1 contains source and purity). PFAS stock solutions were maintained in 100% methanol as previous work has shown certain PFAS degrade when stored in dimethyl sulfoxide (DMSO; [Gaballah et al., 2020]). […] The vehicle control group consisted of 97.5% media + 2.5% methanol to match the concentration of methanol in the media at the highest PFAS concentration tested (500 µM). Menadione (50–500 µM) was used as a positive control for cytotoxicity assessment. PFAS were de-identified and assigned random numbers to eliminate bias. Chemical exposure plate maps were designed so that all experimental conditions were tested in at least technical duplicates per plate. The outer edges of each plate received media alone and were excluded from all analyses to avoid edge effects. Each plate map included 14 technical replicates of the vehicle control group and 14 technical replicates of media only. Biological replicates were defined as separate 384 well plates tested on separate days using different cell passages. The experimental workflow is depicted in Supplementary Figure S1.
(§3) JEG-3 cells were counted using a Z2 Coulter Particle Counter (Beckman Coulter, CA, United States) and seeded at a density of 2,500 cells per well in black-walled, clear bottom 384 well plates (Corning, #3764) and allowed to adhere overnight. Approximately 24 h later, 384 well plates were imaged using an IncuCyte Zoom live cell imager (Essen BioScience Inc., MI, United States) to obtain baseline cellular confluence measurements prior to chemical dosing (0 h). Media was removed from wells and replaced with fresh media containing chemical treatments (exposure media) using a Viaflo liquid handling device (Integra Biosciences, NH, United States). Within 30 min of exposure media application, plates were again imaged for cellular confluence using the IncuCyte Zoom. Plates were incubated with exposure media for 24 h and then imaged again using the IncuCyte Zoom (24 h).
In the same plate evaluated for mitochondrial membrane potential, cell viability measures were duplexed using the CellTiter-Glo (CTG) Luminescent Cell Viability Assay (Promega, WI, United States). CTG reagent was added to each well at a volume of 20 µl. The plate was left at room temperature to incubate for 5 min and then 20 µl from each well was transferred to a low-volume, round-bottom, white 384 well plate (Corning, NY, United States). The CTG reagent lyses cellular and mitochondrial membranes and binds to adenosine triphosphate (ATP) released by cells, which produces a luminescence signal. The intensity of the luminescence was considered a proxy measure for the number of live cells in a well. The luminescence intensities were measured using the CLARIOstar plate reader.
HTTS data were analyzed using a custom data analysis script in R v 1.2.5019 ([R Core Team, 2019]). Briefly, raw data points corresponding to the confluence measurements at 0 and 24 h, the fluorescence intensities corresponding to MMP, and the relative luminescence units (RLU) corresponding to cell viability were imported directly from Microsoft Excel into the R programming environment, RStudio. Separate plates run on separate days using different JEG-3 passages were considered as biologic replicates. […]

[2] = system: JEG-3 cells; assay: Mitochondrial membrane potential, JC-10 assay (HTTS)
Source text: as §1, §2, §3
The JC-10 assay (Enzo Life Sciences, NY, United States) was used to evaluate mitochondrial membrane potential, the main bioenergetic parameter that regulates respiratory rate, ATP synthesis and reactive oxygen species generation. In cells with polarized mitochondrial membranes, the JC-10 dye localizes to the mitochondrial matrix and forms red fluorescent aggregates (540/590 nm). In cells with depolarized mitochondrial membranes, the JC-10 dye localizes in the cytoplasm and converts to a green fluorescent monomer (490/525 nm). Mitochondrial membrane potential was calculated as the ratio of the green and red fluorescence intensities within a well.
At the end of the 24 h exposure period, exposure media was removed from the plate. The plate wells were then washed with 1x phosphate buffered saline (1x PBS). After washing, the JC-10 reagent was suspended in fresh 1x PBS and 20 µl was added to each well at a final concentration of 20 μM (Enzo Life Sciences, NY, United States). The plate was incubated for 1 h at 37°C, and the fluorescence intensities at excitation/emission wavelengths of 490/525 nm and 540/590 nm were measured using a CLARIOstar (BMG Labtech, Offenburg, Germany) plate reader, respectively.
HTTS data were analyzed using a custom data analysis script in R v 1.2.5019 ([R Core Team, 2019]). […]

[3] = system: JEG-3 cells; assay: Proliferation, change in confluence 0-24 h (IncuCyte Zoom, HTTS); details: for Prolif ↓, lowest concentration at which the mean response value exceeded the mean control value ± 2*SD (rough binning) / Prolif ↑, lowest concentration at which the mean response value exceeded the mean control value ± 2*SD (rough binning): 24 h; for Prolif ↓, lowest concentration at which the mean response value exceeded the mean control value ± 2*SD (rough binning): decrease; for cellular proliferation relative to vehicle control (rough binning): after 24 h, in at least one concentration; for Prolif ↑, lowest concentration at which the mean response value exceeded the mean control value ± 2*SD (rough binning): increase; for minimal effective concentration: read-out: Prolif ↓, lowest concentration at which the mean response value exceeded the mean control value ± 2*SD (rough binning)
Source text: as §1, §2, §3
Plate well bottom images were evaluated using automated cell masking. The automated cell masking program was developed using IncuCyte Zoom base software. Cell masking parameters were defined using a training set of JEG-3 cell images obtained prior to conducting the experiments and following IncuCyte Zoom software recommendations. Briefly, the training images were obtained from cell culture plates with varying levels of JEG-3 cellular confluence (ranging from ∼15% confluent to ∼95% confluent). Parameters for the automated cell masking were first manually set by an experimenter for 3-6 images of low (∼15–30%), medium (∼30–70%), and high confluence (∼70% or greater). The training images were then evaluated by the automated masking program and manually checked to ensure the parameters were sufficiently strict to ignore background (e.g., blank space on the plate well bottom) but adequately sensitive to detect cell borders. The masking program was then implemented on the experimental plates to obtain a baseline cellular confluence measurement at 0 h and a second confluence measurement at 24 h. […]

[4] = JEG-3 cells, 24 h exposure, four-parameter fit, estimates meeting inclusion criteria, read-out: Viability EC50 ± SD
[5] = JEG-3 cells, 24 h exposure, four-parameter fit, estimates meeting inclusion criteria, read-out: MMP EC50 ± SD
[6] = JEG-3 cells, 24 h exposure, four-parameter fit, estimates meeting inclusion criteria, read-out: Proliferation EC50 ± SD
[7] = Homo sapiens, JEG-3, 24 h, read-out: Viability EC50 ± SD, JEG-3 cells, 24 h exposure, four-parameter fit, estimates meeting inclusion criteria
[8] = Homo sapiens, JEG-3, 24 h, read-out: Proliferation EC50 ± SD, JEG-3 cells, 24 h exposure, four-parameter fit, estimates meeting inclusion criteria

Compound: 6:2 Fluorotelomer alcohol
- EC50 [1, 4]: 415 ± 70.6 µM
- EC50 ([2]; JEG-3 cells, 24 h, read-out: MMP EC50 ± SE): 95.1 ± 15.3 µM
- EC50 [2, 5]: 332 ± 44.1 µM

Compound: Cc1ccc(S(=O)(=O)OCC(F)(F)C(F)(F)C(F)(F)C(F)(F)F)cc1 [1H,1H-Nonafluoropentyl p-toluenesulfonate]
- Viability ↑, lowest concentration at which the mean response value exceeded the mean control value ± 2*SD (rough binning) ([1]; JEG-3 cells, 24 h): 50 µM
- cell viability relative to vehicle control (rough binning) [1]: increased cell viability
- Prolif ↓, lowest concentration at which the mean response value exceeded the mean control value ± 2*SD (rough binning) ([3]; JEG-3 cells): 400 µM
- EC50 [3, 6]: 306 ± 47.9 µM
- cellular proliferation relative to vehicle control (rough binning) [3]: reduced cellular proliferation
- EC50 [2, 5]: 159 ± 17.7 µM

Compound: O=C([O-])C(F)(F)OC(F)(F)F.[Na+] [2,2-Difluoro-2-(trifluoromethoxy)acetate sodium salt]
- Prolif ↑, lowest concentration at which the mean response value exceeded the mean control value ± 2*SD (rough binning) ([3]; JEG-3 cells): 50 µM
- cellular proliferation relative to vehicle control (rough binning) [3]: increased cellular proliferation

Compound: O=C(O)C(F)(F)C(F)(F)C(F)(F)C(F)F [5H-Octafluoropentanoic acid]
- EC50 [1, 4]: 354 ± 28.6 µM
- EC50 [3, 6]: 334 ± 56.5 µM

Compound: O=S(=O)(O)CCC(F)(F)C(F)(F)C(F)(F)C(F)(F)C(F)(F)C(F)(F)F [6:2 Fluorotelomer sulfonic acid]
- Prolif ↑, lowest concentration at which the mean response value exceeded the mean control value ± 2*SD (rough binning) ([3]; JEG-3 cells): 50 µM
- cellular proliferation relative to vehicle control (rough binning) [3]: increased cellular proliferation
- EC50 ([2]; JEG-3 cells, raw model output including fits that did not meet inclusion criteria, read-out: MMP EC50 ± SD (raw values)): 70608 ± 10 µM

Compound: O=C(O)C(F)(F)C(F)(F)C(F)(F)C(F)(F)C(F)(F)C(F)F [7H-Perfluoroheptanoic acid]
- Viability ↑, lowest concentration at which the mean response value exceeded the mean control value ± 2*SD (rough binning) ([1]; JEG-3 cells, 24 h): 50 µM
- EC50 [1, 4]: 223 ± 60.2 µM
- cell viability relative to vehicle control (rough binning) [1]: increased cell viability
- Prolif ↓, lowest concentration at which the mean response value exceeded the mean control value ± 2*SD (rough binning) ([3]; JEG-3 cells): 400 µM
- EC50 [3, 6]: 294 ± 48.2 µM
- cellular proliferation relative to vehicle control (rough binning) [3]: reduced cellular proliferation

Compound: OCCC(F)(F)C(F)(F)C(F)(F)C(F)(F)C(F)(F)C(F)(F)C(F)(F)C(F)(F)F [8:2 Fluorotelomer alcohol]
- EC50 [1, 7]: 35.7 ± 36.5 µM
- EC50 ([1]; Homo sapiens, JEG-3, 24 h, read-out: viability EC50 ± SE, JEG-3 cells, 24 h): 36 ± 37 µM
- EC50 ([2]; Homo sapiens, JEG-3, 24 h, read-out: MMP EC50 ± SD, JEG-3 cells, 24 h exposure, four-parameter fit, estimates meeting inclusion criteria): 95.1 ± 15.3 µM

Compound: O=C(O)C(F)(OC(F)(F)C(F)(F)C(F)(F)F)C(F)(F)F (centres unmarked) [Ammonium perfluoro-2-methyl-3-oxahexanoate]
- minimal effective concentration ([3]; Homo sapiens, JEG-3, 24 h): 50 µM
- EC50 ([3]; Homo sapiens, JEG-3, read-out: Proliferation EC50 ± SD (raw values), JEG-3 cells, raw model output including fits that did not meet inclusion criteria): 997 ± 952 µM

Compound: O=C(O)C(F)(OC(F)(F)C(F)(F)C(F)(F)F)C(F)(F)F (centres unmarked) [Perfluoro-2-methyl-3-oxahexanoic acid]
- Prolif ↑, lowest concentration at which the mean response value exceeded the mean control value ± 2*SD (rough binning) ([3]; JEG-3 cells): 450 µM
- cellular proliferation relative to vehicle control (rough binning) [3]: increased cellular proliferation
- EC50 ([3]; read-out: Proliferation EC50 ± SD (raw values), JEG-3 cells, raw model output including fits that did not meet inclusion criteria): 1110 ± 267 µM
- minimal effective concentration ([2]; Homo sapiens, JEG-3, 24 h, read-out: MMP ↓, lowest concentration at which the mean response value exceeded the mean control value ± 2*SD (rough binning)): 375 µM
- MMP relative to vehicle control (rough binning) ([2]; after 24 h, in at least one concentration): reduced MMP

Compound: O=C(O)C(F)(F)C(F)(F)C(F)(F)C(F)(F)C(F)(F)C(F)(F)C(F)(F)C(F)(F)C(F)(F)C(F)(F)C(F)(F)F [Perfluorododecanoic acid]
- EC50 [1, 7]: 361 ± 30.8 µM
- Viability ↑, lowest concentration at which the mean response value exceeded the mean control value ± 2*SD (rough binning) ([1]; JEG-3 cells, 24 h): 50 µM
- cell viability relative to vehicle control (rough binning) [1]: increased cell viability
- EC50 [3, 8]: 318 ± 24.5 µM

Compound: O=C(O)C(F)(F)C(F)(F)C(F)(F)C(F)(F)C(F)(F)C(F)(F)F [Perfluoroheptanoic acid]
- EC50 [1, 7]: 487 ± 409 µM
- minimal effective concentration ([3]; Homo sapiens, JEG-3, 24 h): 450 µM
- EC50 [3, 8]: 277 ± 81.6 µM
- cellular proliferation relative to vehicle control (rough binning) [3]: reduced cellular proliferation

Compound: O=C(O)C(F)(F)C(F)(F)C(F)(F)C(F)(F)F [Perfluoropentanoic acid]
- Viability ↑, lowest concentration at which the mean response value exceeded the mean control value ± 2*SD (rough binning) ([1]; JEG-3 cells, 24 h): 200 µM
- cell viability relative to vehicle control (rough binning) [1]: increased cell viability
- EC50 [2, 5]: 175 ± 68.4 µM

Compound: O=C(O)C(F)(F)C(F)(F)C(F)(F)C(F)(F)C(F)(F)C(F)(F)C(F)(F)C(F)(F)C(F)(F)C(F)(F)C(F)(F)C(F)(F)F [Perfluorotridecanoic acid]
- Viability ↑, lowest concentration at which the mean response value exceeded the mean control value ± 2*SD (rough binning) ([1]; JEG-3 cells, 24 h): 150 µM
- cell viability relative to vehicle control (rough binning) [1]: increased cell viability
- Prolif ↓, lowest concentration at which the mean response value exceeded the mean control value ± 2*SD (rough binning) ([3]; JEG-3 cells): 450 µM
- Prolif ↑, lowest concentration at which the mean response value exceeded the mean control value ± 2*SD (rough binning) ([3]; JEG-3 cells): 50 µM
- EC50 [3, 6]: 388 ± 125 µM

Compound: O=S(=O)([O-])C(F)(F)C(F)(F)C(F)(F)C(F)(F)C(F)(F)F.[Na+] [Sodium perfluoropentanesulfonate]
- Viability ↓, lowest concentration at which the mean response value exceeded the mean control value ± 2*SD (rough binning) ([1]; JEG-3 cells, 24 h, decrease): 350 µM
- EC50 ([1]; JEG-3 cells, raw model output including fits that did not meet inclusion criteria, read-out: Viability EC50 ± SD (raw values)): 1210 µM
- cell viability relative to vehicle control (rough binning) [1]: reduced cell viability
- Prolif ↑, lowest concentration at which the mean response value exceeded the mean control value ± 2*SD (rough binning) ([3]; JEG-3 cells): 200 µM
- cellular proliferation relative to vehicle control (rough binning) [3]: increased cellular proliferation
